Results taken from patent publication US10322191B2, “Targeted conjugates and particles and formulations thereof” (TARVEDA THERAPEUTICS, INC., priority 2014, dated 2019).
Like-named read-outs stand apart in the source and are kept apart here. Bridge positions count the residues as written; N and C are the ends. Square brackets hold non-standard residues; d marks the D form. Peptide text beside a SMILES is read from it. * marks the point of attachment. X1 = COc1cc2cc(c1Cl)N(C)C(=O)C[C@H](OC(=O)[C@H](C)N(C)C(=O)CCS*)[C@]1(C)O[C@H]1[C@H](C)[C@@H]1C[C@@](O)(NC(=O)O1)[C@H](OC)/C=C/C=C(\C)C2; Thr(ol) = C[C@@H](O)[C@H](N)CO

Tested on: NCI-H524 (ATCC) human lung cancer cells
Format: cell-based
Experimental: Conjugates were assessed in an in vitro assay evaluating inhibition of cell proliferation. NCI-H524 (ATCC) human lung cancer cells were plated in 96 well, V-bottomed plates (Costar) at a concentration of 5,000 cells/well and 24 hours later were treated with compound for 2 hours and further incubated 70 hours. Compound starting dose was 20 μM and three-fold serial dilutions were done for a total of ten points. After 2 hours of treatment, cells were spun down, the drug containing media was removed, and fresh complete medium was added and used to resuspend the cells, which were spun again. After removal of the wash media, the cells were resuspended in complete medium, then transferred into white walled, flat bottomed 96 well plates. […] Proliferation was measured using CellTiter Glo reagent using the standard protocol (Promega) and a Glomax multi+detection system (Promega). Percent proliferation inhibition was calculated using the following formula: % inhibition=(control-treatment)/control*100. Control is defined as vehicle alone. IC50 curves were generated using the nonlinear regression analysis (four parameter) with GraphPad Prism 6.
Conjugates of the present invention were assessed in an in vitro assay evaluating inhibition of cell proliferation. NCI-H524 (ATCC) human lung cancer cells were plated in 96 well, V-bottomed plates (Costar) at a concentration of 5,000 cells/well. 24 hours later, cells were treated with either conjugate for 2 hours and further incubated 70 hours, or for octreotide competition experiments, treated with 100 μM octreotide for 30 min, and then treated with conjugate for 2 hours, and further incubated for 70 hours. Conjugate starting dose was 20 μM and three fold serial dilutions were done for a total of ten points. After 2 hours of treatment, cells were spun down, the drug containing media was removed, and fresh complete medium was added and used to resuspend the cells, which were spun again. After removal of the wash media, the cells were resuspended in complete medium, then transferred into white walled, flat bottomed 96 well plates. […] Proliferation was measured using CellTiter Glo reagent using the standard protocol (Promega) and a Glomax multi+detection system (Promega). Percent proliferation inhibition was calculated using the following formula: % inhibition=(control-treatment)/control*100. Control is defined as vehicle alone. IC50 curves were generated using the nonlinear regression analysis (four parameter) with GraphPad Prism 6.
Conjugates of the present invention were tested for their activity dependence on the somatostatin receptor. Active agent Z in the conjugate was selected from auristatin, carbazitaxel, DM1, doxorubicin, platinum, SN-38 and vinblastine. Active agent Z is connected to octreotide with various linkers. Proliferation IC50 values of the conjugates were measured. Proliferation IC50 values of the conjugates without octreotide competition were also measured. The ratio of IC50 with octreotide competition and IC50 without octreotide competition is an indicator of whether activity is at least partially dependent on bind to the somatostatin receptor.

[1] = Table 6, treated 2 hours, further incubated 70 hours, read-out: H524 IC50
[2] = read-out: H524 IC50 + 100 μM octreotide, Table 6, with octreotide competition
[3] = read-out: H524 IC50+ 100 uM octreotide, Table 15, 100 μM octreotide for 30 min, then conjugate 2 hours, 70 hours incubation
[4] = Table 15, treated 2 hours, further incubated 70 hours, read-out: H524 IC50

Row | Structure (SMILES) | IC50 [1] | IC50 [2] | IC50 [3] | IC50 [4]
1 | CC[C@H](C)[C@@H]([C@@H](CC(=O)N1CCC[C@H]1[C@H](OC)[C@@H](C)C(=O)N[C@H](C)[C@@H](O)c1ccccc1)OC)N(C)C(=O)[C@@H](NC(=O)[C@H](C(C)C)N(C)C(=O)OCc1ccc(NC(=O)[C@H](CCCNC(N)=O)NC(=O)[C@@H](NC(=O)CCCCCN2C(=O)CC(SCCC(=O)N[C@H](Cc3ccccc3)C(=O)N[C@H]3CSSC[C@@H](C(=O)N[C@H](CO)[C@@H](C)O)NC(=O)[C@H]([C@@H](C)O)NC(=O)[C@H](CCCCN)NC(=O)[C@@H](Cc4c[nH]c5ccccc45)NC(=O)[C@H](Cc4ccccc4)NC3=O)C2=O)C(C)C)cc1)C(C)C (stereo partly drawn) [Conjugate 5] | 433 nM | 826 nM | – | –
2 | COc1cc2cc(c1Cl)N(C)C(=O)C[C@H](OC(=O)[C@H](C)N(C)C(=O)CCSSCCC(=O)NCCOCCOCCOCCOCCOCCOCCOCCOCCC(=O)N[C@H](Cc1ccccc1)C(=O)N[C@H]1CSSC[C@@H](C(=O)N[C@H](CO)[C@@H](C)O)NC(=O)[C@H]([C@@H](C)O)NC(=O)[C@H](CCCCN)NC(=O)[C@@H](Cc3c[nH]c4ccccc34)NC(=O)[C@H](Cc3ccccc3)NC1=O)[C@]1(C)O[C@H]1[C@H](C)[C@@H]1C[C@@](O)(NC(=O)O1)[C@H](OC)/C=C/C=C(\C)C2 [Conjugate 6] | 234 nM | 629 nM | 629 nM | –
3 | COc1cc2cc(c1Cl)N(C)C(=O)C[C@H](OC(=O)[C@H](C)N(C)C(=O)CCSSC[C@H](N)C(=O)N[C@@H](CCCCN)C(=O)N[C@@H](CCCCN)C(=O)N[C@@H](CCCCN)C(=O)N[C@@H](CCCCN)C(=O)N[C@H](Cc1ccccc1)C(=O)N[C@H]1CSSC[C@@H](C(=O)N[C@H](CO)[C@@H](C)O)NC(=O)[C@H]([C@@H](C)O)NC(=O)[C@H](CCCCN)NC(=O)[C@@H](Cc3c[nH]c4ccccc34)NC(=O)[C@H](Cc3ccccc3)NC1=O)[C@]1(C)O[C@H]1[C@H](C)[C@@H]1C[C@@](O)(NC(=O)O1)[C@H](OC)/C=C/C=C(\C)C2 [Conjugate 7] (H-C(X1)KKKK[dF]CF[dW]KTC[Thr(ol)]; disulfide 7-12) | 955 nM | 1770 nM | 1770 nM | –
4 | COc1cc2cc(c1Cl)N(C)C(=O)C[C@H](OC(=O)[C@H](C)N(C)C(=O)CCSC1CC(=O)N(CCCNC(=O)CC[C@H]3C(=O)N[C@@H](Cc4ccc(O)cc4)C(=O)N[C@H](Cc4c[nH]c5ccccc45)C(=O)N[C@@H](CCCCN)C(=O)N[C@@H]([C@@H](C)O)C(=O)N[C@@H](Cc4ccccc4)C(=O)N3C)C1=O)[C@]1(C)O[C@H]1[C@H](C)[C@@H]1C[C@@](O)(NC(=O)O1)[C@H](OC)/C=C/C=C(\C)C2 (stereo partly drawn) [Conjugate 12] | – | – | 2340 nM | 1680 nM
5 | COc1cc2cc(c1Cl)N(C)C(=O)C[C@H](OC(=O)[C@H](C)N(C)C(=O)CCSSCCC(=O)N1CCN(C(=O)CC[C@H]3C(=O)N[C@@H](Cc4ccc(O)cc4)C(=O)N[C@H](Cc4c[nH]c5ccccc45)C(=O)N[C@@H](CCCCN)C(=O)N[C@@H]([C@@H](C)O)C(=O)N[C@@H](Cc4ccccc4)C(=O)N3C)CC1)[C@]1(C)O[C@H]1[C@H](C)[C@@H]1C[C@@](O)(NC(=O)O1)[C@H](OC)/C=C/C=C(\C)C2 [Conjugate 26] | – | – | 1160 nM | 787 nM
6 | COc1cc2cc(c1Cl)N(C)C(=O)C[C@H](OC(=O)[C@H](C)N(C)C(=O)CCSSC1CCN(C(=O)CC[C@H]3C(=O)N[C@@H](Cc4ccc(O)cc4)C(=O)N[C@H](Cc4c[nH]c5ccccc45)C(=O)N[C@@H](CCCCN)C(=O)N[C@@H]([C@@H](C)O)C(=O)N[C@@H](Cc4ccccc4)C(=O)N3C)CC1)[C@]1(C)O[C@H]1[C@H](C)[C@@H]1C[C@@](O)(NC(=O)O1)[C@H](OC)/C=C/C=C(\C)C2 [Conjugate 28] | – | – | 1000 nM | 669 nM
7 | COc1cc2cc(c1Cl)N(C)C(=O)C[C@H](OC(=O)[C@H](C)N(C)C(=O)CCSSCC(=O)NCCNC(=O)CC[C@H]1C(=O)N[C@@H](Cc3ccc(O)cc3)C(=O)N[C@H](Cc3c[nH]c4ccccc34)C(=O)N[C@@H](CCCCN)C(=O)N[C@@H]([C@@H](C)O)C(=O)N[C@@H](Cc3ccccc3)C(=O)N1C)[C@]1(C)O[C@H]1[C@H](C)[C@@H]1C[C@@](O)(NC(=O)O1)[C@H](OC)/C=C/C=C(\C)C2 [Conjugate 30] | – | – | 2020 nM | 470 nM
8 | COc1cc2cc(c1Cl)N(C)C(=O)C[C@H](OC(=O)[C@H](C)N(C)C(=O)CCSSCCNC(=O)[C@@H](NC(=O)[C@@H]1CSSC[C@H](NC(=O)[C@H](N)Cc3ccccc3)C(=O)N[C@@H](Cc3csc4ccccc34)C(=O)N[C@H](Cc3c[nH]c4ccccc34)C(=O)N[C@@H](CCCCN)C(=O)N[C@@H]([C@@H](C)O)C(=O)N1)[C@@H](C)O)[C@]1(C)O[C@H]1[C@H](C)[C@@H]1C[C@@](O)(NC(=O)O1)[C@H](OC)/C=C/C=C(\C)C2 [Conjugate 37] | – | – | 166 nM | 44 nM
9 | COc1cc2cc(c1Cl)N(C)C(=O)C[C@H](OC(=O)[C@H](C)N(C)C(=O)CCSSCCC(=O)NCCNC(=O)[C@@H](NC(=O)[C@@H]1CSSC[C@H](NC(=O)[C@H](N)Cc3ccccc3)C(=O)N[C@@H](Cc3ccc(O)cc3)C(=O)N[C@H](Cc3c[nH]c4ccccc34)C(=O)N[C@@H](CCCCN)C(=O)N[C@@H]([C@@H](C)O)C(=O)N1)[C@@H](C)O)[C@]1(C)O[C@H]1[C@H](C)[C@@H]1C[C@@](O)(NC(=O)O1)[C@H](OC)/C=C/C=C(\C)C2 [Conjugate 43] | – | – | 2050 nM | 1160 nM
10 | COc1cc2cc(c1Cl)N(C)C(=O)C[C@H](OC(=O)[C@H](C)N(C)C(=O)CCSSCCC(=O)NCCNC(=O)[C@H](Cc1c[nH]c3ccccc13)NC(=O)[C@@H]1CSSC[C@H](NC(=O)[C@H](N)Cc3ccccc3)C(=O)N[C@@H](Cc3ccc(O)cc3)C(=O)N[C@H](Cc3c[nH]c4ccccc34)C(=O)N[C@@H](CCCCN)C(=O)N[C@@H]([C@@H](C)O)C(=O)N1)[C@]1(C)O[C@H]1[C@H](C)[C@@H]1C[C@@](O)(NC(=O)O1)[C@H](OC)/C=C/C=C(\C)C2 [Conjugate 45] | – | – | 481 nM | 345 nM
11 | COc1cc2cc(c1Cl)N(C)C(=O)C[C@H](OC(=O)[C@H](C)N(C)C(=O)CCSSCCC(=O)NCCOCCOCCOCCNC(=O)[C@@H](NC(=O)[C@@H]1CSSC[C@H](NC(=O)[C@H](N)Cc3ccccc3)C(=O)N[C@@H](Cc3ccc(O)cc3)CN[C@H](Cc3c[nH]c4ccccc34)C(=O)N[C@@H](CCCCN)C(=O)N[C@@H]([C@@H](C)O)C(=O)N1)[C@@H](C)O)[C@]1(C)O[C@H]1[C@H](C)[C@@H]1C[C@@](O)(NC(=O)O1)[C@H](OC)/C=C/C=C(\C)C2 [Conjugate 47] | – | – | 1270 nM | 2130 nM
12 | COc1cc2cc(c1Cl)N(C)C(=O)C[C@H](OC(=O)[C@H](C)N(C)C(=O)CCSSCCNC(=O)[C@H](Cc1c[nH]c3ccccc13)NC(=O)[C@@H]1CSSC[C@H](NC(=O)[C@H](N)Cc3ccccc3)C(=O)N[C@@H](Cc3ccc(O)cc3)CN[C@H](Cc3c[nH]c4ccccc34)C(=O)N[C@@H](CCCCN)C(=O)N[C@@H]([C@@H](C)O)C(=O)N1)[C@]1(C)O[C@H]1[C@H](C)[C@@H]1C[C@@](O)(NC(=O)O1)[C@H](OC)/C=C/C=C(\C)C2 [Conjugate 49] | – | – | 243 nM | 69 nM
13 | COc1cc2cc(c1Cl)N(C)C(=O)C[C@H](OC(=O)[C@H](C)N(C)C(=O)CCSSCCC(=O)NCCNC(=O)[C@@H](NC(=O)[C@@H]1CSSC[C@H](NC(=O)[C@H](N)Cc3c[nH]c4ccccc34)C(=O)N[C@@H](Cc3ccc(O)cc3)C(=O)N[C@H](Cc3c[nH]c4ccccc34)C(=O)N[C@@H](CCCCN)C(=O)N[C@@H]([C@@H](C)O)C(=O)N1)[C@@H](C)O)[C@]1(C)O[C@H]1[C@H](C)[C@@H]1C[C@@](O)(NC(=O)O1)[C@H](OC)/C=C/C=C(\C)C2 [Conjugate 51] | – | – | 238 nM | 124 nM
14 | COc1cc2cc(c1Cl)N(C)C(=O)C[C@H](OC(=O)[C@H](C)N(C)C(=O)CCSC1CC(=O)N(CCCNC(=O)CC[C@H](NC(=O)[C@@H]3CSSC[C@H](NC(=O)[C@H](N)Cc4ccccc4)C(=O)N[C@@H](Cc4ccc(O)cc4)CN[C@H](Cc4c[nH]c5ccccc45)C(=O)N[C@@H](CCCCN)C(=O)N[C@@H]([C@@H](C)O)C(=O)N3)C(=O)NCCCN3C(=O)CC(SCCC(=O)N(C)[C@@H](C)C(=O)O[C@H]4CC(=O)N(C)c5cc(cc(OC)c5Cl)C/C(C)=C/C=C/[C@@H](OC)[C@@]5(O)C[C@H](OC(=O)N5)[C@@H](C)[C@@H]5O[C@@]45C)C3=O)C1=O)[C@]1(C)O[C@H]1[C@H](C)[C@@H]1C[C@@](O)(NC(=O)O1)[C@H](OC)/C=C/C=C(\C)C2 (stereo partly drawn) [Conjugate 53] | – | – | 175 nM | 42 nM
